One data set deals with TN5 cells. As to conditions: 2-ADN added in a concentration of 5 mM. The procedure: TN5 cells were cultured in EX-CELL401 medium (manufactured by JRH Bioscience) containing 0 to 5 mM of 2-acetamide-1,2-dideoxynojirimycin (2-ADN) (Tront Research Chemicals Inc.) at 28° C. for 3 days. Subsequently, TN5 (TN5B1-4) cells were infected with the recombinant baculovirus prepared as described above at an moi of 1.0 and subjected to a further culturing in EX-CELL401 medium (manufactured by JRH Bioscience) at 28° C. for 3 days. Thereafter, the supernatant containing recombinant boIFN-τ (rboIFN-τ) was recovered.

In data set [1] the test system is α-2,6-linked sialylation of recombinant boIFN-τ in TN5 cells. Put plainly: Lectin blot analysis (HRP-SNA) of sialic acid in recombinant boIFN-τ expressed by TN5 cells. It counts as cell-based, insect (TN5 cells). As to conditions: 2-ADN 0, 0.05, 0.5, 1, 2 and 5 mM; total amount of protein of each lane the same. The procedure: After TN5 cells were infected with a recombinant baculovirus, they were cultured for 3 days. The supernatant was subjected to Tricine SDS-PAGE performed under reducing conditions (600 ng protein per lane). After the separated protein was transferred on a PVDF membrane, and blocked with PBS containing 1% BSA at 4° C. overnight, the protein was washed with 200 mM Tris-buffered saline (TBS) containing 0.05% Tween 20, and then reacted with 5 μg/ml Sambucus nigra agglutinin labeled with horseradish peroxidase (HRP-SNA, manufactured by EY laboratory) at room temperature for one hour. The carbohydrate reacted was visualized by a Renaissance Western Blot Chemiluminescence Kit (Manufactured by NEN).
To investigate whether or not a sialylated recombinant glycoprotein is produced in insect cells where the GlcNAcase activity is inhibited, the terminal structure of N-glycan of recombinant boIFN-τ was determined by a lectin blot analysis using SNA, which is a lectin capable of recognizing α-2,6-linked sialic acid.

Data set [2] has as its system N-acetylglucosaminidase (GlcNAcase) of TN5 cells. The data set is described as follows: GlcNAcase inhibition assay of TN5 cells (p-nitrophenol release from p-nitrophenyl β-D-acetylglucosamide). It counts as biochemical, insect (TN5 cells). The procedure: The GlcNAcase inhibition assay of TN5 cells was performed as follows.
TN5 cells (2.0×10^7 cells) were washed once with PBS and rinsed with 1 ml of PBS containing 1% Triton-X 100. After centrifugation at 1,000×g for 5 minutes, the supernatant was used as an enzyme source. Fifty μl of the supernatant was mixed with 50 μl of 2-ADN to make a final 2-ADN concentration of 0 to 5 mM. To the solution mixture, 200 μl of a substrate solution (1 mg/ml p-nitrophenyl β-D-acetylglucosamide in 0.2 M citrate/phosphate buffer) was added. The resultant solution was incubated at 37° C. for one hour. The reaction was quenched by adding 1 M Na2CO3, the absorption of released p-nitrophenol was measured at 420 nm. […] Lanes 1 to 6 in the figures show the results obtained at addition amounts of 2-ADN, 0, 0.05, 0.5, 1, 2 and 5 mM, respectively.

Data set [3] concerns N-glycosylation of recombinant boIFN-τ in TN5 cells. Put plainly: SDS-PAGE and Western blot of recombinant boIFN-τ from TN5 cells cultured with tunicamycin. The data set is classed as cell-based, insect (TN5 cells). As to conditions: 1 μg/ml tunicamycin, 3 days; only the 19.5 kD molecule observed. The procedure: The addition of a sugar chain to a recombinant protein, that is, N-glycosylation, was inhibited by culturing the TN5 cells infected with a recombinant baculovirus in a medium containing 1 μg/ml tunicamycin (manufactured by Sigma Chemical Co.) for 3 days.
Twenty μl of the culture supernatant of TN5 cells cultured for 3 days after infection with a recombinant baculovirus was subjected as a sample to Tricine SDS-PAGE performed under reducing conditions in accordance with a method described in Schagger, H. et al., Anal. Biochem. 166, 368-379 (1987). After electrophoresis, the separated protein was stained with Coomassie brilliant blue (CBB)G-250 or blotted on a polyvinylidene difluoride (PDFV) membrane (manufactured by Millipore Corporation). The protein-transferred membrane was blocked with PBS containing 5% skim milk at 4° C. overnight and allowed to react with a 0.2 μg/ml anti-boIFN-τ monoclonal antibody (manufactured by Katakura Industries) at room temperature for one hour, and further incubated with 2000-fold-diluted HPR-rabbit anti-mouse IgG at room temperature. The antibody bound to the protein was visualized by 3,3′-diaminobenzidine staining. The densities of bands obtained after the CBB staining and Western blotting were quantified by using a densitometer.
For orientation: In western blotting, separated proteins are transferred to a membrane and probed.

In the case of `CC(=O)N[C@H]1CN[C@H](CO)[C@@H](O)[C@@H]1O` [2-ADN, 2-acetoamide-1,2-dideoxynojirimycin], the proliferation of cells entry in the data set with TN5 cells is reported as “not affected”. In data set [1], the “SNA-reactive band intensity (sialic acid in recombinant boIFN-τ)” value is on record as “increased by adding 2-ADN in a concentration dependent manner”. Also, the “GlcNAcase activity, dependence on concentration” value in data set [2] (0 to 5 mM 2-ADN) was “inhibited by 2-ADN in a concentration-dependent manner”. Further, the GlcNAcase activity inhibited result in data set [2] (5 mM 2-ADN, TN5 cell lysate supernatant, 37° C., one hour) is recorded as “About 80%”.
Consider tunicamycin, for which, in data set [3], the “N-glycosylation of recombinant boIFN-τ” value is listed as “blocked”.

The record behind these values is patent publication US20040203117A1, “Method of expressing genetically modified protein carrying sugar chain having sialic acid added thereto in insect cells” (priority 2001, published 2004).
